Test systems include DMS-273; RXF 631; XF498; M19-MEL; SNB-78; HOP-18; LXFL 529; DMS-114; Hs-578T.
Test in all cases: DTP human tumour cell line panel, 48 h

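Dose response: 5 concentrations. Exposure: 48 h. Format: 96-well plates. Endpoint: linear interpolation; highest concentration if not reached. GI50 is the concentration that inhibits growth by half.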 Calls of active or inactive are those of the source. Rule as the data show it: active = GI50 up to about 1.1 µM and inactive = higher.

In general, GI50 refers to the concentration at which growth is held to half of that of the control. In the case of `CCOc1ccc(/C=N\N2C(=O)c3ccccc3C2=O)cc1`, the GI50 in the assay with DMS-273, with RXF 631, in the assay on XF498, with M19-MEL, with SNB-78 and with HOP-18 was > 100 µM (inactive) throughout. Further, the GI50 in the assay on LXFL 529 and in the assay with DMS-114 was > 100 µM (inactive) in each case.

With `C=CSCCC(N)C(=O)O` (stereo not given), the GI50 with DMS-273, in the assay with RXF 631, in the assay on XF498, in the assay with M19-MEL, with SNB-78 and in the assay with HOP-18 was > 100 µM (inactive) throughout. In addition, the GI50 in the assay on LXFL 529 and in the assay on DMS-114 was > 100 µM (inactive) each time.

For the molecule `CCN(CC)CCCNc1ccc2nc(C)n3c4ccc(O)cc4c(=O)c1c23`, the GI50 in the assay with DMS-273 is 0.619 µM (active); in the assay on RXF 631, 3.79 µM (inactive); in the assay with Hs-578T, 7.08 µM (inactive); with XF498 it was 6.81 µM (inactive); in the assay with M19-MEL, 10.6 µM (inactive); in the assay on SNB-78 it was 5.35 µM (inactive). In addition, the results for the GI50 with HOP-18, in the assay with LXFL 529 and with DMS-114 were 12.4 µM (inactive), 3.22 µM (inactive) and 5.41 µM (inactive), respectively.
